Reference: patent US20230332252A1, “CELL-FREE BIOSENSORS WITH DNA STRAND DISPLACEMENT CIRCUITS AND POLYMERASE STRAND RECYCLING (PSR)” (Northwestern University, priority 2021, published 2023)

Columns and labels:
[1] = molecular target: T1, SmtB (Synechococcus elongatus, UniProt P30340); assay: SmtB-regulated in vitro transcription of InvadeR with TMSD fluorescence output; type: biochemical; conditions: improved smtO-hairpin-InvadeR design, low background signal
T1 construct: 6xHis (C); made in house; host or cells: E. coli Rosetta 2(DE3)pLysS, pET-28c backbone (pJBL725)
T1 sequence (P30340 with tags, fused parts or gaps): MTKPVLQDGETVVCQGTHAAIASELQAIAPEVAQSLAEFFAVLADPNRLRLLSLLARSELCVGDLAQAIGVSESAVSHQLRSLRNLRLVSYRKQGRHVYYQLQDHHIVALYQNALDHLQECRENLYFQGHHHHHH
Method: (§1) In addition to TetR, we chose TtgR [44] and SmtB [45] as representative aTFs of the MarR family and SmtB/ArsR family, respectively. We placed the cognate operator sequence of each aTF 2-bp downstream of the T7 promoter and immediately upstream of the InvadeR sequences (FIG. 4a-c). When tetracycline was used to induce TetR-regulated reactions, we observed a strong and robust fluorescent signal visible in ˜10 minutes (FIG. 4d, FIG. 13a). […] We note that we observed a slight decrease in the induction speed from the TtgR-regulated reactions compared to that of the TetR-regulated reactions, likely due to the reduced ttgO DNA template concentration needed to accommodate TtgR's relatively weak binding affinity to its operator sequence.
We were immediately successful in adapting the system to TetR and TtgR (FIG. 4a, b). […]
(§2) Regulated IVT reactions additionally included a purified aTF at the indicated concentration and were equilibrated at 37° C. for ˜10 minutes. Immediately prior to plate reader measurements, 2 ng of T7 RNAP and, optionally, a ligand at the indicated concentration were added to the reaction. Reactions were then characterized on a plate reader as described in Plate reader quantification and micromolar equivalent fluorescein (MEF) standardization.

[2] = molecular target: T2, TetR (Escherichia coli, UniProt P04483); assay: biochemical
T2 construct: made in house; host or cells: E. coli Rosetta 2(DE3)pLysS, pET-28c backbone (pJBL701)
Method: To test if this spacing remained important in the TMSD platform, we used TetR as our model aTF to determine the optimum spacing for efficient repression in the presence of TetR and efficient transcription in the absence of TetR [41]. We used the native sequence that follows the canonical T7 RNAP promoter as a spacer in 2-bp increments from 0 to 10-bp, immediately followed by the tetO sequence and InvadeR sequence (FIG. 3a). IVT reactions were set up using 50 nM DNA template with or without purified recombinant TetR protein in 100-fold excess of the DNA template. […]
Using the 2-bp spacer, we next determined whether TetR can be de-repressed with its cognate ligand, anhydrotetracycline (aTc) to allow transcription of InvadeR (FIG. 3c). […]
Homemade IVT reactions were set up by adding the following components listed at their final concentration: IVT buffer (40 mM Tris-HCl pH 8, 8 mM MgCl2, 10 mM DTT, 20 mM NaCl, and 2 mM spermidine), 11.4 mM NTPs pH 7.5, 0.3 U thermostable inorganic pyrophosphatase (#M0296S, New England Biolabs), transcription template, DNA gate(s) and MilliQ ultrapure H2O to a total volume of 20 μL. […] Immediately prior to plate reader measurements, 2 ng of T7 RNAP and, optionally, a ligand at the indicated concentration were added to the reaction.

[3] = molecular target: T3, TtgR (Pseudomonas putida, UniProt Q88N29); assay: TtgR-regulated in vitro transcription of InvadeR with TMSD fluorescence output; type: biochemical; conditions: TtgR-regulated reactions, with versus without ligand
T3 construct: made in house; host or cells: E. coli Rosetta 2(DE3)pLysS, pET-28c backbone (pJBL721)
T3 sequence (Q88N29 other isoform, or with tags, fused parts or gaps): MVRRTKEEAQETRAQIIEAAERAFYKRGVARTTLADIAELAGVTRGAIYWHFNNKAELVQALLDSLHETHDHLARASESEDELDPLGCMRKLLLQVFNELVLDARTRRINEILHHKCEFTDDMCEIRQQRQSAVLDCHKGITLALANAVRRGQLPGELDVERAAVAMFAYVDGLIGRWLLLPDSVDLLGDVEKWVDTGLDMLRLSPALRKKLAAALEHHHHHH
Method: as §1, §2

Compound: O=S(=O)([O-])[O-].[Zn+2] [ZnSO4]
- fluorescence activation by ligand [1]: clear activation

Compound: Cc1c2c(c(O)c3c(O)cccc13)C(=O)[C@]1(O)C(=O)C(C(N)=O)=C(O)[C@@H](N(C)C)[C@@H]1C2 [aTc, anhydrotetracycline]
- EC50 [2]: 2.5 to 5 µM

Compound: O=C1C[C@@H](c2ccc(O)cc2)Oc2cc(O)cc(O)c21 [naringenin]
- fluorescence activation by ligand [3]: robust fluorescence activation only in the presence of the ligand
